Holding throughout (assay type): cell-based
Assay [1] deals with IL-23 Kit225 Reporter (Kit225 T cells with a stably-integrated STAT-dependent luciferase reporter, stimulated with IL-23). Put plainly: Kit225 T Cell Assay, IL-23-stimulated STAT-dependent luciferase reporter. To be noted: 20 ng/mL human recombinant IL-23, 5-6 hours, luciferase expression. On the technique in general: A reporter such as luciferase makes a cellular process visible.

Assay [2] relates to IFNα Kit225 Reporter (Kit225 T cells with a stably-integrated STAT-dependent luciferase reporter, stimulated with IFNα). In words: Kit225 T Cell Assay, IFNα-stimulated STAT-dependent luciferase reporter. The conditions noted are these: 200 U/mL human recombinant IFNα, 5-6 hours, luciferase expression. The gist of the method: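 Kit225 T cells carrying a STAT-dependent luciferase reporter, in RPMI with 10% FBS, stimulated 5-6 h with 20 ng/mL human IL-23 or 200 U/mL human IFNα; luciferase luminescence read. Inhibition normalised to no-inhibitor (0%) and unstimulated (100%) wells; IC50 by non-linear regression.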

A short description of assay [3]: Kit225 T Cell Assay, IL-23-stimulated STAT-dependent luciferase reporter. To be noted: Kit225 T cells, 20 ng/mL human recombinant IL-23, 5-6 hours, luciferase expression.

The source of these data is patent US12473290B2, “Imidazopyridazine compounds useful as modulators of IL-12, IL-23 and/or IFN alpha responses” (BRISTOL-MYERS SQUIBB COMPANY, priority 2019, dated 2025).

pIC50: −log10 of the molar value.

For `N#Cc1cnc2c(Nc3ccc(C(=O)N4[C@H]5CC[C@@H]4CC5)c(OCC(F)F)n3)cc(NC3CCOCC3)nn12` [Example 46, 8-{[6-(2,2-difluoroethoxy)-5-[(1s,4s)-7-azabicyclo[2.2.1]heptane-7-carbonyl]pyridin-2-yl]amino}-6-[(oxan-4-yl)amino]imidazo[1,2-b]pyridazine-3-carbonitrile], the pIC50 in assay [1] was 7.22; in assay [2] it was 6.44.
Regarding `CN1CCN(c2cccc(Nc3cc(N[C@@H]4CCCC[C@H]4O)nn4c(C#N)cnc34)n2)CC1` [Example 62, 6-{[(1R,2R)-2-hydroxycyclohexyl]amino}-8-{[6-(4-methylpiperazin-1-yl)pyridin-2-yl]amino}imidazo[1,2-b]pyridazine-3-carbonitrile], the pIC50 was 6.54 in assay [3] and 6.70 in assay [2].
As to `CS(=O)(=O)N1CCN(c2cccc(Nc3cc(N[C@@H]4CCCC[C@H]4O)nn4c(C#N)cnc34)n2)CC1` [Example 63, 6-{[(1R,2R)-2-hydroxycyclohexyl]amino}-8-{[6-(4-methanesulfonylpiperazin-1-yl)pyridin-2-yl]amino}imidazo[1,2-b]pyridazine-3-carbonitrile], the pIC50 in assay [3] was 6.96; in assay [2], 6.26.
In the same order, the values of `CC(=O)N1CCN(c2cccc(Nc3cc(N[C@@H]4CCCC[C@H]4O)nn4c(C#N)cnc34)n2)CC1` [Example 64, 8-{[6-(4-acetylpiperazin-1-yl)pyridin-2-yl]amino}-6-{[(1R,2R)-2-hydroxycyclohexyl]amino}imidazo[1,2-b]pyridazine-3-carbonitrile] are 6.46 and 6.30.
For `N#Cc1cnc2c(Nc3cccc(N4CCOCC4)n3)cc(N[C@@H]3CCCC[C@H]3O)nn12` [Example 65, 6-{[(1R,2R)-2-hydroxycyclohexyl]amino}-8-{[6-(morpholin-4-yl)pyridin-2-yl]amino}imidazo[1,2-b]pyridazine-3-carbonitrile], the pIC50 in assay [3] was 6.26; in assay [2], 6.96.
With `N#Cc1cnc2c(Nc3cccc(N)n3)cc(N[C@@H]3CCCC[C@H]3O)nn12` [Example 66, 8-[(6-aminopyridin-2-yl)amino]-6-{[(1R,2R)-2-hydroxycyclohexyl]amino}imidazo[1,2-b]pyridazine-3-carbonitrile], the figures for the pIC50 in assay [3] and in assay [2] were 6.15 and 6.47, respectively.

As a reminder, the pIC50 is −log10 of the IC50, conventionally taken in molar units.
